From ChEMBL document CHEMBL1124082, “Synthesis, intramolecular hydrogen bonding, and biochemical studies of clitocine, a naturally occurring exocyclic amino nucleoside” (J Med Chem, 1988)

Tests used:
[1] = Inhibition of growth of human B lymphoblast derived W1-L2 cells; format: functional; conditions: WIL2, read-out: ID50 (the source's name)
L1210 = test: In vitro inhibition of L1210 cells; format: functional; conditions: Mus musculus, read-out: ID50 (the source's name)
Adenosine kinase [2] = target: T1, Adenosine kinase (Homo sapiens, UniProt P55263); test: Inhibition of adenosine kinase from undialyzed W1-L2 lysate (0-50 uM)
T1 sequence (P55263 whole entry): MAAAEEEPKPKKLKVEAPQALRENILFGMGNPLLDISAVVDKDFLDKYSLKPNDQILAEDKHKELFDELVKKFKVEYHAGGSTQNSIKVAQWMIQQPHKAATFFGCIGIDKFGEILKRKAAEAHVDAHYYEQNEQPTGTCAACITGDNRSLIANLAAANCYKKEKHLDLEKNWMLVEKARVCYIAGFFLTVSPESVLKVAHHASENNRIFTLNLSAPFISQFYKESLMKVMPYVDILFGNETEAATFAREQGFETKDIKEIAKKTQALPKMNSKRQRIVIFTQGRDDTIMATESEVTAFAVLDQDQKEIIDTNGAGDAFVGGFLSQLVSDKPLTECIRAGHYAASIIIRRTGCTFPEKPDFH

Adenosine kinase [3] = target: T1, Adenosine kinase; test: Binding affinity towards adenosine kinase

IC50 (L1210): 30 nM
Ki (Adenosine kinase [2]): 3000 nM
Ki (Adenosine kinase [3]): 300 nM
SMILES: Nc1ncnc(N[C@@H]2O[C@H](CO)[C@@H](O)[C@H]2O)c1[N+](=O)[O-]
IC50 [1]: 30 nM
